Laboratory results taken from the supplement of paper PMC10326909.

Assay: ESI positive response factor (isotope-corrected peak area per molar concentration) in SFC/ESI/HRMS (area units per M); higher = higher ionization efficiency
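Also: standards in acetonitrile/water run in triplicate on a zwitterionic HILIC column, CO2–methanol gradient containing 20 mmol/L ammonium acetate, postcolumn makeup flow, Orbitrap full-scan detection.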

CC(=O)N1CC(O)C[C@H]1C(=O)O (stereo in doubt) [Trans-1-acetyl-4-hydroxy-L-prolin]
ESI positive response factor (0.0875 µM): 1.56e+15 | ESI positive response factor (0.35 µM): 6.42e+15 | ESI positive response factor (0.875 µM): 6.4e+15 | ESI positive response factor (1.75 µM): 6.39e+15

CN1C(C)(C)CC(O)CC1(C)C [1,2,2,6,6-Pentamethyl-4-piperidinol]
ESI positive response factor (0.0175 µM): 4.91e+17 | ESI positive response factor (0.035 µM): 5.26e+17 | ESI positive response factor (0.0875 µM): 5.02e+17 | ESI positive response factor (0.175 µM): 4.63e+17 | ESI positive response factor (0.35 µM): 4.69e+17 | ESI positive response factor (0.875 µM): 4.18e+17 | ESI positive response factor (1.75 µM): 3.68e+17

CN1CCN(C)C1=O [1,3-Dimethyl-2-imidazolidinone]
ESI positive response factor (0.0175 µM): 6.51e+16 | ESI positive response factor (0.035 µM): 7.85e+16 | ESI positive response factor (0.0875 µM): 6.75e+16 | ESI positive response factor (0.175 µM): 6.53e+16

Cn1cnc2c1c(=O)n(CCCC(=O)O)c(=O)n2C [1-(3-Carboxypropyl)-3,7-dimethyl-xanthin]
ESI positive response factor (0.0175 µM): 1.77e+16 | ESI positive response factor (0.035 µM): 2.12e+16 | ESI positive response factor (0.0875 µM): 2.2e+16 | ESI positive response factor (0.175 µM): 2e+16 | ESI positive response factor (0.35 µM): 2.34e+16 | ESI positive response factor (0.875 µM): 2.22e+16

CC(O)CN(CCO)CCO (configuration not stated) [1-[N,N-Bis(2-hydroxyethyl)amino]-2-propanol]
ESI positive response factor (0.0175 µM): 2.91e+17 | ESI positive response factor (0.035 µM): 3.14e+17 | ESI positive response factor (0.0875 µM): 3.24e+17 | ESI positive response factor (0.175 µM): 2.77e+17 | ESI positive response factor (0.35 µM): 2.94e+17

c1ccc2[nH]nnc2c1 [1H-Benzotriazol]
ESI positive response factor (0.035 µM): 7.96e+15 | ESI positive response factor (0.0875 µM): 1.11e+16 | ESI positive response factor (0.175 µM): 1.18e+16 | ESI positive response factor (0.35 µM): 1.37e+16

CC1(C)CC(O)CC(C)(C)N1 [2,2,6,6-Tetramethyl-4-piperidinol]
ESI positive response factor (0.0175 µM): 1.95e+17 | ESI positive response factor (0.035 µM): 1.78e+17 | ESI positive response factor (0.0875 µM): 1.53e+17 | ESI positive response factor (0.175 µM): 1.47e+17 | ESI positive response factor (0.35 µM): 1.58e+17

Nc1nc(N)c2nc(CO)cnc2n1 [2,4-Diamino-6-(hydroxymethyl)pteridine]
ESI positive response factor (0.0175 µM): 2.75e+16 | ESI positive response factor (0.035 µM): 4.33e+16 | ESI positive response factor (0.0875 µM): 4.27e+16 | ESI positive response factor (0.175 µM): 3.56e+16 | ESI positive response factor (0.35 µM): 3.92e+16 | ESI positive response factor (0.875 µM): 4.05e+16

NC(=O)c1c(Cl)cccc1Cl [2,6-Dichlorbenzamid]
ESI positive response factor (0.035 µM): 1.78e+16 | ESI positive response factor (0.0875 µM): 2.14e+16 | ESI positive response factor (0.175 µM): 2.26e+16 | ESI positive response factor (0.35 µM): 2.46e+16 | ESI positive response factor (0.875 µM): 2.38e+16

CCCCCC(C)N (configuration not stated) [2-Aminoheptane]
ESI positive response factor (0.035 µM): 1.87e+16 | ESI positive response factor (0.0875 µM): 1.47e+16

Nc1ccccn1 [2-Aminopyridine]
ESI positive response factor (0.035 µM): 1.33e+16 | ESI positive response factor (0.0875 µM): 1.55e+16 | ESI positive response factor (0.175 µM): 1.48e+16 | ESI positive response factor (0.35 µM): 1.73e+16

c1ccc(CC2=NCCN2)cc1 [2-Benzylimidazoline]
ESI positive response factor (0.175 µM): 4.79e+15 | ESI positive response factor (0.35 µM): 5.75e+15 | ESI positive response factor (0.875 µM): 5.13e+15 | ESI positive response factor (1.75 µM): 4.96e+15

CCCCC(CC)CN (configuration not stated) [2-Ethyl-1-hexylamine]
ESI positive response factor (0.175 µM): 2.01e+16 | ESI positive response factor (0.35 µM): 1.94e+16

O=S(=O)(O)c1ccc2nc(-c3ccccc3)[nH]c2c1 [2-Phenyl-5-benzimidazole]
ESI positive response factor (0.0875 µM): 7.22e+14 | ESI positive response factor (0.35 µM): 3.87e+15 | ESI positive response factor (0.875 µM): 4.7e+15 | ESI positive response factor (1.75 µM): 4.96e+15

OCC[C@@H]1CCCC[NH2+]1 [2-Piperidineethanol]
ESI positive response factor (0.0122 µM): 1.24e+17 | ESI positive response factor (0.0244 µM): 1.22e+17 | ESI positive response factor (0.061 µM): 9.77e+16 | ESI positive response factor (0.122 µM): 1.07e+17 | ESI positive response factor (0.244 µM): 1.07e+17

O=C1CCCN1 [2-Pyrrolidinone]
ESI positive response factor (0.175 µM): 8.26e+15 | ESI positive response factor (0.35 µM): 8.52e+15 | ESI positive response factor (0.875 µM): 1.07e+16 | ESI positive response factor (1.75 µM): 8.7e+15

C[NH2+]C[C@H](O)CO [3-Methylamino-1,2-propanediol]
ESI positive response factor (0.0122 µM): 7.17e+16 | ESI positive response factor (0.0244 µM): 4.4e+16 | ESI positive response factor (0.061 µM): 6.78e+16 | ESI positive response factor (0.122 µM): 6.39e+16 | ESI positive response factor (0.244 µM): 7.28e+16 | ESI positive response factor (0.61 µM): 6.66e+16
